From patent publication US11891634B2, “PDE5A destabilizing domains” (The Board of Trustees of the Leland Stanford Junior …, priority 2017, dated 2024)

Assays:
[1] = test system: NIH3T3 cells expressing AcGFP-PDE5A fusions; assay: Immunoblot analysis of AcGFP-PDE5A fusions (anti-XFP / anti-HA); type: cell-based, mouse; settings: 10 μM Sildenafil or vehicle alone, 24 hours
Description: Identified PDE5A mutants were further validated using immunoblot analysis. NIH3T3 cells expressing AcGFP-PDE5A fusions were incubated with 10 μM Sildenafil or vehicle alone for 24 hours and the stability of PDE5A mutants was evaluated at the protein level. Cell lysates obtained from transduced NIH3T3 cells were immunoblotted using the anti-XFP antibody (1:3000) at 4° C. overnight. Samples were also immunoblotted with anti-GAPDH antibody (1:10000) to ensure uniform protein loading. Samples were then incubated with secondary anti-mouse antibody (1:3000) at room temperature for 1 hour, followed by visualization using appropriate methods. […] The difference in band intensity recapitulates the pattern from the FACS analysis.
A hemagglutinin (HA) sequence (SEQ ID NO. 74; encoded by SEQ ID NO. 75) was cloned in-frame at either the 5′- or 3′-ends of the PDE5A mutant sequence from PDE5AC (#41). The construct further included AcGFP (amino acids 1-239 of WT) at the N terminus (SEQ ID NO. 76, encoded by SEQ ID NO. 77) and an EF linker/EcoRI restriction site (GAATTC). […] The effect of the HA sequence on ligand dependent stabilization was evaluated via immunoblot analysis. […] As show in FIG. 3, HA-tagged fusion protein expression detected with either anti-XFP antibody or anti-HA antibody was nearly identical. […]

[2] = test system: NIH3T3 cells expressing AcGFP-PDE5A fusions; assay: FACS analysis of C-terminal PDE5A mutants (AcGFP-PDE5A fusions), Sildenafil vs vehicle; type: cell-based, mouse; settings: for Mean Fluorescence intensity: NIH3T3; for Stabilization ratio: Table 4, Sildenafil 10 μM vs vehicle alone
Description: The NIH3T3 cell line was cultured in DMEM supplemented with 10% heat-inactivated donor bovine serum (Invitrogen), 2 mM glutamine, 100 U/ml penicillin and 100 μg/ml streptomycin.
The ΦNX ecotropic packaging cell line was transfected using standard Lipofectamine 2000 protocols. Viral supernatants were harvested 48 hours, post transfection, filtered and concentrated 10-fold using Amicon Ultra centrifugal filter device with a 100kDa cutoff. NIH 3T3 cells were incubated with concentrated retroviral supernatants supplemented with 4 μg/ml polybrene for 4 hours at 37° C. Cells were washed once with PBS and cultured in growth media for 24-36 hours to allow for viral integration.
The transduced NIH3T3 cells were subjected to analysis using fluorescence-activated cell sorting (FACS) to screen the libraries of PDE5A mutants. 24 hours prior to analysis, transduced NIH3T3 cells were plated at 1×10^5 cells per well of a 12-well plate. Cells were removed from the plate using PBS and 2 mM EDTA, washed once with PBS, and resuspended in 200 μL, PBS. FACS analysis was performed on instruments at the Stanford Shared FACS Facility with 10,000 events represented.
To identify destabilizing domains that are responsive to the PDE5A ligand, Sildenafil, a cell-based screening assay was employed in which the fluorescence of green fluorescent protein derived from Aequorea coerulescens (AcGFP) served as an indicator of PDE5A stability. A library based on the PDE5A catalytic domain sequences was generated using error prone PCR and then cloned in-frame in front of AcGFP. A Moloney murine leukemia retroviral expression was used to stably integrate this library of PDE5A-AcGFP fusions into NIH-3T3 fibroblasts, and the transduced cells were subjected to three rounds of sorting using flow cytometry. In the first round, cells were treated with 10 μM of PDE5A ligand, Sildenafil for 16-24 before analysis. Fluorescent cells were collected and further cultured in the absence of ligand for 60 hours.
A library of AcGFP-PDE5A fusions i.e., C-terminal PDE5A mutants was screened using the cell-based screening assay described previously to identify C-terminal destabilizing domains. […] Identified candidates were subjected to further characterization by FACS. Cells were split into two treatment groups and incubated with either Sildenafil (10 μM) or vehicle alone for 24 hours. Cells that were mock transduced or transduced with the wild-type PDE5A construct were also included in the analysis. The stabilization ratio was calculated as the fold change in GFP intensity of the AcGFP-PDE5A construct in Sildenafil treated sample compared to vehicle alone treated sample. The results are presented in Table 2 where the C terminal PDE5A mutants are denoted as PDE5AC.
Residue D764 was identified as a mutational hotspot from sequence analysis. PDE5AC (#41) was engineered with either D764N or D764G mutation via site-directed mutagenesis. PDE5AC (#41) +D764N comprises the amino acid sequence of SEQ ID NO. 53 (encoded by SEQ ID NO. 54) and PDE5AC (#41) +D764G comprises the amino acid sequence of SEQ ID NO. 55 (encoded by SEQ ID NO. 56). AcGFP-PDE5A variants were evaluated for Sildenafil dependent stabilization via FACS as described previously. Results from FACS analysis are presented in Table 4 where the C terminal PDE5A mutants are denoted as PDE5AC. The stabilization ratio was calculated as the fold change in GFP intensity of the AcGFP-PDE5A construct in Sildenafil treated sample compared to vehicle alone treated sample.
Extended versions of human PDE5A that included residues in addition to catalytic domain (residues 535-860 of SEQ ID NO. 1) with Q589R polymorphism (SEQ ID NO. 11) were evaluated for use as C-terminal destabilizing domains. Three extended PDE5A sequences were tested that consisted of residues 535-875 of SEQ ID NO. 1 with Q589R polymorphism (SEQ ID NO. 13); residues 466-875 of SEQ ID NO. 1 with Q589R polymorphism (SEQ ID NO. 15); or residues 420-875 of SEQ ID NO. […]

[3] = test system: NIH3T3 cells expressing AcGFP-PDE5A variants; assay: Sildenafil dose dependency (FACS, percentage of max MFI); type: cell-based, mouse; settings: Sildenafil 0.003 μM to 30 μM, read-out: half maximal effective concentration or EC50
Description: NIH3T3 cells expressing AcGFP-PDE5A variants were incubated with varying concentrations of Sildenafil ranging from 0.003 μM to 30 μM. The stability of PDE5A mutants was measured using FACS and mean fluorescence intensity (MFI) of GFP was calculated. […] Percentage of max MFI (%) was calculated as the ratio of the MFI at a ligand concentration compared to the maximum MFI. Percentage of max MFI was plotted against the concentration of Sildenafil presented in a log scale. Titration curves of PDE5AC (#2) and PDE5AC (#41) are presented in FIG. 4A and FIG. 4B, respectively. […] The half maximal effective concentration or EC50 was approximately 0.5 μM for PDE5AC (#2) and 2 μM for PDE5AC (#41).

AcGFP = assay: Comparison of N-terminal and C-terminal PDE5A derived DD (FACS); type: cell-based, human; settings: 24 hours
Description: The ability of PDE5A derived DDs to destabilize a protein of interest may depend on the position whether the DD is appended to the N terminus or the C terminus of the protein of interest. Mutant #2, and mutant #41 were appended either to the N terminus or C terminus of AcGFP and analyzed using the cell-based screening assay described previously to identify destabilizing domains. Cells were split into two treatment groups and incubated with either Sildenafil (10 μM) or vehicle alone for 24 hours. Cells that were mock transduced or transduced with the N terminal fused wild-type PDE5A or PDE5AN (#40) constructs were also included in the analysis. The results are presented in Table 8 where the C terminal PDE5A mutants are denoted as PDE5AC and N terminal PDE5A mutants are denoted as PDE5AN.
The stabilization ratio was calculated as the fold change in GFP intensity of the AcGFP-PDE5A construct in Sildenafil treated sample compared to vehicle alone treated sample.

[4] = Table 2, Sildenafil (10 μM) +, 24 hours
[5] = Table 2, Sildenafil (10 μM) −, vehicle alone, 24 hours
[6] = Table 4 (D764 mutations), Sildenafil (10 μM) +
[7] = Table 4 (D764 mutations), Sildenafil (10 μM) −

## PDE5AC (#2): AcGFP fused to C-terminal DD 535-860 of PDE5A (Q589R, D687A, D764N, S815C), SEQ ID NO. 23
[1]
  Fusion protein expression / ligand dependent stabilization by immunoblot: most drastic difference in the intensity of the bands
[2]; [4]
  Mean Fluorescence intensity: 6577
[2]; [5]
  Mean Fluorescence intensity: 1023
[2]; [6]
  Mean Fluorescence intensity: 3483
[2]; [7]
  Mean Fluorescence intensity: 671
[2]
  Stabilization ratio: 5.2
[3]
  EC50: ~500 nM
AcGFP
  Mean FITC-A DMSO: 1342
  Mean FITC-A Sildenafil (10 μM): 5030

## PDE5AC (#41): AcGFP fused to C-terminal DD 535-860 of PDE5A (F561L, Q589R, K604E, D724N, L797F), SEQ ID NO. 27
[1]
  Fusion protein expression / ligand dependent stabilization by immunoblot: most drastic difference in the intensity of the bands
[2]; [4]
  Mean Fluorescence intensity: 6115
[2]; [5]
  Mean Fluorescence intensity: 1000
[2]; [6]
  Mean Fluorescence intensity: 4647
[2]; [7]
  Mean Fluorescence intensity: 734
[2]
  Stabilization ratio: 6.3
[3]
  EC50: ~2000 nM
AcGFP
  Mean FITC-A DMSO: 1443
  Mean FITC-A Sildenafil (10 μM): 4620
